Data: ChEMBL document CHEMBL3763143, “Novel morpholine scaffolds as selective dopamine (DA) D3 receptor antagonists” (Bioorg Med Chem Lett, 2016)
Each block holds one compound with its values, some of them ahead of it. Activity calls are given as the source filed them. No cut-off for these calls is given here.

Columns and labels:
D(3) dopamine receptor [1] = target: T1, D(3) dopamine receptor (Homo sapiens, UniProt P35462); test: Agonist activity at human dopamine D3 receptor expressed in CHO cells after 90 mins by [35S]-GTPgamma S assay; type: cell-based
T1 sequence (P35462 whole entry): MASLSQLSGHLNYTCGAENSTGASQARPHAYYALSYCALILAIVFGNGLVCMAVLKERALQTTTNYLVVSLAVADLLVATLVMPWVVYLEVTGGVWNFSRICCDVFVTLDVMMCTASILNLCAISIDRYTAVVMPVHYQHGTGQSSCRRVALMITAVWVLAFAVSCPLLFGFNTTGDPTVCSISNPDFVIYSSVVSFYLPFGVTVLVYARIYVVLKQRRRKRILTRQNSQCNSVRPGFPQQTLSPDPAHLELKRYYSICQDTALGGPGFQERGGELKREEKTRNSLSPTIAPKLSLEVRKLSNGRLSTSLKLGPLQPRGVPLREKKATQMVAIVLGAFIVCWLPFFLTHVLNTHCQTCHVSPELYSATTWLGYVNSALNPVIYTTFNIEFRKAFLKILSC

D(3) dopamine receptor [2] = target: D(3) dopamine receptor (Rattus norvegicus, UniProt P19020)
Sequence of D(3) dopamine receptor (Rattus norvegicus, UniProt P19020) (P19020 whole entry): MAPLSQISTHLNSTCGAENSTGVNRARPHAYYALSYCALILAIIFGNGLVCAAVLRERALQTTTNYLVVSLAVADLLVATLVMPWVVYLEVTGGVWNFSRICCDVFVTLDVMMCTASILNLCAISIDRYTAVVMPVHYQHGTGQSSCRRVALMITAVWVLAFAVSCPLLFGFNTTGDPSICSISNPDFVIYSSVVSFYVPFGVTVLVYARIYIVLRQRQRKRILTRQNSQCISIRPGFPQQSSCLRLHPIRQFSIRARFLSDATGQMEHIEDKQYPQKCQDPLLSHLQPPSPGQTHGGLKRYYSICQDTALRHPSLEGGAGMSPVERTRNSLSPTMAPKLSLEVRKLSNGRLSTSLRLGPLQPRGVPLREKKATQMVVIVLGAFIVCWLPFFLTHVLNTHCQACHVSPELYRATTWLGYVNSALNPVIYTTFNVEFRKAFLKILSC
Description: Displacement of [125I]-7-OH-PIPAT from rat brain dopamine D3 receptor after 45 mins by microplate scintillation counting analysis

D(3) dopamine receptor [3] = target: T1, D(3) dopamine receptor; test: Antagonist activity at human dopamine D3 receptor expressed in CHO cells after 90 mins by [35S]-GTPgamma S assay; type: cell-based
[4] = target: Voltage-gated inwardly rectifying potassium channel KCNH2 (Homo sapiens, UniProt Q12809); test: Displacement of [3H]-dofetilide from human ERG potassium channel by scintillation proximity assay
Sequence of Voltage-gated inwardly rectifying potassium channel KCNH2 (Q12809 whole entry): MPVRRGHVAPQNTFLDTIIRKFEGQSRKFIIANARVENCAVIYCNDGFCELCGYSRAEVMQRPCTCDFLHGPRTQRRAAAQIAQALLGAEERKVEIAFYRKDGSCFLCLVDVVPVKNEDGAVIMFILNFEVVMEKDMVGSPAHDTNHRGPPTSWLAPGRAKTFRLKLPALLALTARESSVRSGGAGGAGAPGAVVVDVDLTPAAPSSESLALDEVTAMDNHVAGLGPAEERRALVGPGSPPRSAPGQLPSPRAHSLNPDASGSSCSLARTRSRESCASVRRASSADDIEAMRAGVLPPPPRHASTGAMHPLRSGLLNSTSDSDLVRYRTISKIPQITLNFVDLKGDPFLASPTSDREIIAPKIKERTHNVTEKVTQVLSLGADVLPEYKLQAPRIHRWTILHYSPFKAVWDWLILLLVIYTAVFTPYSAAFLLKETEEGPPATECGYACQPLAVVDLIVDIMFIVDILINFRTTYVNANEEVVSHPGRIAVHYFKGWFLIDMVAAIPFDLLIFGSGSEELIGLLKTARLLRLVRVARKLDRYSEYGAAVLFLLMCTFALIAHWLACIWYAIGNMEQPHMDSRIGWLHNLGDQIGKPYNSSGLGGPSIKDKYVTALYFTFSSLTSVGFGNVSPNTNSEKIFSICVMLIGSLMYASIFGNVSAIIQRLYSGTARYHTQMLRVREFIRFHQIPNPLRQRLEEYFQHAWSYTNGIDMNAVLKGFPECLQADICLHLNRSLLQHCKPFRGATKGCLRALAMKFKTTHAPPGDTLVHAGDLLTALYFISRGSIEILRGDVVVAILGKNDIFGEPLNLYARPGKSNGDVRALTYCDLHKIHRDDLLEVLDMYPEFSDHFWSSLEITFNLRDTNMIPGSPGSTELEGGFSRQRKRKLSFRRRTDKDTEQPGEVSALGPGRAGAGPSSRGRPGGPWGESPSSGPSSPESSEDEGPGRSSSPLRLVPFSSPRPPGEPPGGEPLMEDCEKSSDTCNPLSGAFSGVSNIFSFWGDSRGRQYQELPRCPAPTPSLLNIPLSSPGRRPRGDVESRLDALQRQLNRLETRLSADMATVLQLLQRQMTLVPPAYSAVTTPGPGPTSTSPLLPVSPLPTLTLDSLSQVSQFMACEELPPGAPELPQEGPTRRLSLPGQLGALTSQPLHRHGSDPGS

[5] = target: T2, Muscarinic acetylcholine receptor M1 (Homo sapiens, UniProt P11229); test: Antagonist activity at muscarinic M1 receptor (unknown origin)
T2 sequence (P11229 whole entry): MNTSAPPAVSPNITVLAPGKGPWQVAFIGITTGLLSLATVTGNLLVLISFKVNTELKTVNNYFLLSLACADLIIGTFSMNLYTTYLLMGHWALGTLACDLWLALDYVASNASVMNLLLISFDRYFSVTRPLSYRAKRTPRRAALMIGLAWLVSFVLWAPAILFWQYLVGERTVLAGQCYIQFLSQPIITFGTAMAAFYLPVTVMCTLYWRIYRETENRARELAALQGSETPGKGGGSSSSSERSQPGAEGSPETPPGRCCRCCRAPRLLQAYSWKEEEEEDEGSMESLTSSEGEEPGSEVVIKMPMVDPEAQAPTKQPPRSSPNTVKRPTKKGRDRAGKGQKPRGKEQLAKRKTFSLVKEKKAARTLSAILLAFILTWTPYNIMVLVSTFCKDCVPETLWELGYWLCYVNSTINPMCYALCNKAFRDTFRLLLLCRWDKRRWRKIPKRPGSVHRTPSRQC

[6] = target: Dopamine receptor D2 and D3 (Rattus norvegicus) (UniProt P19020+P61169); test: Selectivity ratio of Ki for rat brain dopamine D2 receptor to Ki for rat brain dopamine D3 receptor
Sequence of Dopamine receptor D2 and D3 (Rattus norvegicus) (P19020 whole entry, looked up): as the sequence (P19020 whole entry) above
Sequence of Dopamine receptor D2 and D3 (Rattus norvegicus) (P61169 whole entry, looked up): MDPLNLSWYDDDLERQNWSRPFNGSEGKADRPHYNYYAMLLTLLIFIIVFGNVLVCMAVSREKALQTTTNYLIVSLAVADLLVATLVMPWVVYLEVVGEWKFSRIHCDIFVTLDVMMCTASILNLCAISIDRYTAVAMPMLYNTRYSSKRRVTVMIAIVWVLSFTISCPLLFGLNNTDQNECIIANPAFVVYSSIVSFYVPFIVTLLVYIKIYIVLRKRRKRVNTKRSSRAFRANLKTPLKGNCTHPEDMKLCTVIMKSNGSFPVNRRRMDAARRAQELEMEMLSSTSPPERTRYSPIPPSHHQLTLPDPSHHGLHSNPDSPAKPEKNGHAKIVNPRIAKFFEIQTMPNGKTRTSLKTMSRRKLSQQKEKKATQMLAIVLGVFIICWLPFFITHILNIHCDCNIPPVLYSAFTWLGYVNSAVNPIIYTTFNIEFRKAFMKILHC

D(1A) dopamine receptor = D(1A) dopamine receptor (Homo sapiens, UniProt P21728); test: Binding affinity to dopamine D1 receptor (unknown origin)
Sequence of D(1A) dopamine receptor (P21728 whole entry): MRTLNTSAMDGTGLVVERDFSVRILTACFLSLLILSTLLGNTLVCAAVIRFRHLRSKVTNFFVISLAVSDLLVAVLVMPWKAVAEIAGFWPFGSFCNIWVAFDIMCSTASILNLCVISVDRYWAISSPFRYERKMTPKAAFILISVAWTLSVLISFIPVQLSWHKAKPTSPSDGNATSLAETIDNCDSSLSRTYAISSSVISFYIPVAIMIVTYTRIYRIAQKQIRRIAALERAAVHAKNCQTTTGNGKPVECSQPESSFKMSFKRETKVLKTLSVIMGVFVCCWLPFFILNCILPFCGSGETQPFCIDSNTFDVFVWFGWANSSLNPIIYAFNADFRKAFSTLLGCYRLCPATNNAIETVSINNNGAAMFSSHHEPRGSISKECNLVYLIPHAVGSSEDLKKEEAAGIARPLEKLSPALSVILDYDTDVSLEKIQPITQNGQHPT

[7] = target: T3, D(4) dopamine receptor (Homo sapiens) (UniProt P21917); test: (§1) Binding affinity to dopamine D4 receptor (unknown origin)
T3 sequence (whole entry): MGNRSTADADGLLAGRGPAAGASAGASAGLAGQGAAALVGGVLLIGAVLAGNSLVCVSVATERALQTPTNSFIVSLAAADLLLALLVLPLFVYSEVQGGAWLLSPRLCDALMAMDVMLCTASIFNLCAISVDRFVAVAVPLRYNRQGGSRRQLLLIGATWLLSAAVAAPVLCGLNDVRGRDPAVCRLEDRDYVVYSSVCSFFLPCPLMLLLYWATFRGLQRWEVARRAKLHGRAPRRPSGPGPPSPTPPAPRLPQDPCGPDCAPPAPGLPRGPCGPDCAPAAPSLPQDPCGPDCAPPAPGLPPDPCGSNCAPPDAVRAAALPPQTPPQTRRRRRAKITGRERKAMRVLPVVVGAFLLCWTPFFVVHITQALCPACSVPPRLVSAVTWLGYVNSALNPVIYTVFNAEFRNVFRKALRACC

[8] = target: Muscarinic acetylcholine receptor M3 (Homo sapiens, UniProt P20309); test: Binding affinity to muscarinic M3 receptor (unknown origin)
[9] = Fraction unbound in portal vein-cannulated rat brain; type: ADME, tissue-based
Cytochrome P450 3A4 [10] = target: T4, Cytochrome P450 3A4 (Homo sapiens, UniProt P08684); test: Inhibition of human CYP3A4 expressed in bactosome using DBOMF as substrate; type: ADME
T4 sequence (P08684 whole entry): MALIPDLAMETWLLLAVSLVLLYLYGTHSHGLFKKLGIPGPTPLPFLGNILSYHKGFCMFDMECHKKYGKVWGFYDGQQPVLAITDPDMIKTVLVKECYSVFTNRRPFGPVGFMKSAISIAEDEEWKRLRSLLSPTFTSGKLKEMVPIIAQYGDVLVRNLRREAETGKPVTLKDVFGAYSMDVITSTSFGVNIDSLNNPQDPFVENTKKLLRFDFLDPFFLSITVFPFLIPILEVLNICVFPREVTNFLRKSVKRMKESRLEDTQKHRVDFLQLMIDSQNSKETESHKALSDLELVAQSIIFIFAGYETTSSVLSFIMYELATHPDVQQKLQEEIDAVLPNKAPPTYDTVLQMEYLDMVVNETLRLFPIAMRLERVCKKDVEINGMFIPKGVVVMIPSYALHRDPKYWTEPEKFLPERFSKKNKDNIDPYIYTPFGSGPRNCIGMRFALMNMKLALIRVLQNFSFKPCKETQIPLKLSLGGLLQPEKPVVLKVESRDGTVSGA

[11] = Fraction absorbed in portal vein-cannulated rat; type: ADME, organism-based; conditions: in vivo
Cytochrome P450 3A4 [12] = target: T4, Cytochrome P450 3A4; test: Inhibition of human CYP3A4 expressed in bactosome using 7BQ as substrate; type: ADME
[13] = Blood clearance in portal vein-cannulated rat; type: ADME, organism-based; conditions: whole blood
Cytochrome P450 2C9 = Cytochrome P450 2C9 (Homo sapiens, UniProt P11712); test: Inhibition of human CYP2C9 expressed in bactosome; type: ADME
Sequence of Cytochrome P450 2C9 (P11712 whole entry): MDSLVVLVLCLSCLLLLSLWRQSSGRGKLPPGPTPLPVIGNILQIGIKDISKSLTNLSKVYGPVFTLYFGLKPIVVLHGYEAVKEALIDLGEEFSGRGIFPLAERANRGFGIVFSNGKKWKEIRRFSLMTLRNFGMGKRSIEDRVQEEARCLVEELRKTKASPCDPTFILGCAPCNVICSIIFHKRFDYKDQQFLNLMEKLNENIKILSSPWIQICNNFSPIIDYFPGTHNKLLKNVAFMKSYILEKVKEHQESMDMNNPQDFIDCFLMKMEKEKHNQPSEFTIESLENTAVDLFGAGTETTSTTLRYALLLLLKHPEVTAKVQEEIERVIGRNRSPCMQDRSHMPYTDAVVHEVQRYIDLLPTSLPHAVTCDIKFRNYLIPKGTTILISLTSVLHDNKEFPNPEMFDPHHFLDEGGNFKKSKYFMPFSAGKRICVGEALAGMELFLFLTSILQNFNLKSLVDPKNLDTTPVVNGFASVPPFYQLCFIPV

[14] = Volume of distribution at steady state in portal vein-cannulated rat; type: ADME, organism-based; conditions: in vivo, read-out: Vdss
Cytochrome P450 2C19 = Cytochrome P450 2C19 (Homo sapiens, UniProt P33261); test: Inhibition of human CYP2C19 expressed in bactosome; type: ADME
Sequence of Cytochrome P450 2C19 (P33261 whole entry): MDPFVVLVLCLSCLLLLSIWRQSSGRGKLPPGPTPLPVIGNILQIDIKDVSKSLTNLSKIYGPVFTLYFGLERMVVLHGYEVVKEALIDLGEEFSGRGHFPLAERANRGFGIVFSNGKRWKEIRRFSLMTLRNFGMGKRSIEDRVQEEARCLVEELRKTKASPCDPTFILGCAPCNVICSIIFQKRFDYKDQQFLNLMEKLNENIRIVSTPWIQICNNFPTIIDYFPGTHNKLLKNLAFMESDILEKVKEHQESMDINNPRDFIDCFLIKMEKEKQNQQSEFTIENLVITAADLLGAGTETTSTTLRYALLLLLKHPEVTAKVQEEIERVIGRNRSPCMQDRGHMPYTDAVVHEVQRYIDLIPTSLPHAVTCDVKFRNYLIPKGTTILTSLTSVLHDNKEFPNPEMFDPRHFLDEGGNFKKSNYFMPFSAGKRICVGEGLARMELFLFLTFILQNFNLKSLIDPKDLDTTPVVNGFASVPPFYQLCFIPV

Cytochrome P450 2D6 = Cytochrome P450 2D6 (Homo sapiens, UniProt P10635); test: Inhibition of human CYP2D6 expressed in bactosome; type: ADME
Sequence of Cytochrome P450 2D6 (P10635 whole entry): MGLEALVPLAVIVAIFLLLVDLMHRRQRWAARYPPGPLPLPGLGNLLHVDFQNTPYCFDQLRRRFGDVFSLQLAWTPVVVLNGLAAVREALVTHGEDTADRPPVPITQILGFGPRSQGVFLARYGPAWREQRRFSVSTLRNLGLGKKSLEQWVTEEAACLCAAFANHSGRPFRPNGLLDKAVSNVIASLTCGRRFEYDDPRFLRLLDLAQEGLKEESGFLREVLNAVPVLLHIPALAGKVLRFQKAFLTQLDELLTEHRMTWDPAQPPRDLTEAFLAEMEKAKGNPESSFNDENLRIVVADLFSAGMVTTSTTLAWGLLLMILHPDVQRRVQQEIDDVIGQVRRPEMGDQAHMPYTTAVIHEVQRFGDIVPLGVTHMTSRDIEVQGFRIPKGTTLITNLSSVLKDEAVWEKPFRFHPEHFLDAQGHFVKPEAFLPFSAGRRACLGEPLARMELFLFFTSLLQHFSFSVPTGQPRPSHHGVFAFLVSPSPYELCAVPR

[15] = Half life in portal vein-cannulated rat; type: ADME, organism-based; conditions: in vivo
Cytochrome P450 1A2 = target: T5, Cytochrome P450 1A2 (Homo sapiens, UniProt P05177); test: Inhibition of human CYP1A2 expressed in bactosome; type: ADME
T5 sequence (P05177 whole entry): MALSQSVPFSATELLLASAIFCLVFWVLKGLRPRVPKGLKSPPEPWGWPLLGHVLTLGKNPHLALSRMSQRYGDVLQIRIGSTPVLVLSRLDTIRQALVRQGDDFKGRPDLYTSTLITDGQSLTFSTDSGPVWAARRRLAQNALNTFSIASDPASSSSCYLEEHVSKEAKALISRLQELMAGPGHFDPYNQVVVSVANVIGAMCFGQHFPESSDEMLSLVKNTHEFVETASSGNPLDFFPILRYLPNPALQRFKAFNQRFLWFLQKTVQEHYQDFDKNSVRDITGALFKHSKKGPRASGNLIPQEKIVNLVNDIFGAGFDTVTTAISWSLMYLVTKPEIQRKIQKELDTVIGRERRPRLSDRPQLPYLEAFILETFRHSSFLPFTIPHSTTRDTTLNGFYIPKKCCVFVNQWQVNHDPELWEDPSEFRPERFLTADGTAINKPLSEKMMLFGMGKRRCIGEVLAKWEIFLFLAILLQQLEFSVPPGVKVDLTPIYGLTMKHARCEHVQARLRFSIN

[16] = Intrinsic clearance in human liver microsomes assessed per mg of protein; type: ADME; conditions: read-out: CLH
D(4) dopamine receptor = target: T6, D(4) dopamine receptor (Homo sapiens, UniProt P21917); test: as §1
T6 sequence (P21917 whole entry): T3 sequence (whole entry)

[17] = Bioavailability in portal vein-cannulated rat; type: ADME, organism-based; conditions: in vivo
[18] = Fraction unbound in portal vein-cannulated rat blood; type: ADME, tissue-based
[19] = Intrinsic clearance in rat liver microsomes assessed per mg of protein; type: ADME; conditions: read-out: CLH

SMILES: Cn1c(SCCCN2CCOC(c3ccc(C(F)(F)F)cc3)C2)nnc1-c1cnccn1 (racemic)
Ki (D(3) dopamine receptor [1]): > 10 µM
Ki (D(3) dopamine receptor [2]): 0.158 µM

SMILES: Cn1c(SCCCN2CCOC(c3ccc(C(F)(F)F)cc3)C2)nnc1-c1ccc(C(N)=O)cc1 (racemic) [listing 1 of 2 here]
Ki (D(3) dopamine receptor [1]): > 10 µM
Ki (D(3) dopamine receptor [2]): 0.0316 µM
Ki [4]: 5.01 µM
Ki (D(3) dopamine receptor [3]): 0.02 µM
Ki [5]: 1 µM

SMILES: Cc1ncoc1-c1nnc(SCCCN2CCOC(c3ccc(F)cc3)C2)n1C (racemic)
Ki (D(3) dopamine receptor [1]): > 10 µM
Ki (D(3) dopamine receptor [2]): 0.398 µM

SMILES: Cn1c(SCCCN2CCOC(c3ccc(C(F)(F)F)cc3)C2)nnc1-c1ccc(C(N)=O)cc1 (racemic) [listing 2 of 2 here]
Activity (D(1A) dopamine receptor): inactive
Activity [7]: inactive
Activity [8]: inactive

SMILES: Cc1ncoc1-c1nnc(SCCCN2CCOC(c3ccc(F)cc3)C2)n1C (stereo in doubt; 7)
Activity (D(1A) dopamine receptor): inactive
Activity [7]: inactive
Activity [8]: inactive

SMILES: Cc1ncoc1-c1nnc(SCCCN2CCOC(c3ccc(C(F)(F)F)cc3)C2)n1C (stereo in doubt; 9)
Ki (D(1A) dopamine receptor): > 100 µM
fraction unbound [9]: 0.071
IC50 (Cytochrome P450 3A4 [10]): > 6 µM
Fa [11]: 63%
IC50 (Cytochrome P450 3A4 [12]): > 6 µM
clearance [13]: 13.5 mL/min/kg
IC50 (Cytochrome P450 2C9): > 6 µM
Ki (D(3) dopamine receptor [2]): 0.0501 µM
Ki [4]: 3.16 µM
Vd [14]: 2.5 L/kg
IC50 (Cytochrome P450 2C19): > 6 µM
IC50 (Cytochrome P450 2D6): > 6 µM
half-life [15]: 3.5 h
IC50 (Cytochrome P450 1A2): > 6 µM
microsomal CLint [16]: 40 µL/min/mg
Ki (D(4) dopamine receptor): > 100 µM
bioavailability [17]: 58%
Ki [8]: 1 µM
fraction unbound [18]: 0.062
Ki [5]: 1 µM

SMILES: Cn1c(SCCCN2CCOC(c3ccc(C(F)(F)F)cc3)C2)nnc1-c1ccc(C(N)=O)cc1 (stereo in doubt; 26)
fraction unbound [9]: 0.03
IC50 (Cytochrome P450 3A4 [10]): > 30 µM
IC50 (Cytochrome P450 3A4 [12]): > 30 µM
microsomal CLint [19]: 16.3 µL/min/mg
IC50 (Cytochrome P450 2C9): > 30 µM
Ki (D(3) dopamine receptor [2]): 0.0158 µM
Ki [4]: 6.31 µM
IC50 (Cytochrome P450 2C19): > 30 µM
IC50 (Cytochrome P450 2D6): > 30 µM
IC50 (Cytochrome P450 1A2): > 30 µM
microsomal CLint [16]: 63.2 µL/min/mg
Ki (D(3) dopamine receptor [3]): 0.00631 µM
fraction unbound [18]: 0.045

SMILES: Cn1c(SCCCN2CCOC(c3ccc(C(F)(F)F)cc3)C2)nnc1-c1ccc(-c2ncco2)cc1 (stereo in doubt; 34)
fraction unbound [9]: 0.005
IC50 (Cytochrome P450 3A4 [10]): > 3 µM
IC50 (Cytochrome P450 3A4 [12]): > 3 µM
microsomal CLint [19]: 114 µL/min/mg
IC50 (Cytochrome P450 2C9): > 3 µM
Ki (D(3) dopamine receptor [2]): 0.00631 µM
Ki [4]: 1.26 µM
IC50 (Cytochrome P450 2C19): > 3 µM
IC50 (Cytochrome P450 2D6): > 3 µM
IC50 (Cytochrome P450 1A2): > 3 µM
microsomal CLint [16]: 668 µL/min/mg
Ki (D(3) dopamine receptor [3]): 0.00316 µM
fraction unbound [18]: 0.008

Second part, led by results:

Ki (D(3) dopamine receptor [1]): > 10 µM
Ki (D(3) dopamine receptor [2]): 0.251 µM
SMILES: Cn1c(SCCCN2CCOC(c3ccc(C(F)(F)F)cc3)C2)nnc1-c1nccs1 (racemic)

Ki (D(3) dopamine receptor [1]): > 10 µM
Ki (D(3) dopamine receptor [2]): 0.126 µM
SMILES: Cn1c(SCCCN2CCOC(c3ccc(C(F)(F)F)cc3)C2)nnc1-c1ccc(-n2cnnc2)cc1 (racemic)

Ki (D(3) dopamine receptor [1]): > 10 µM
Ki (D(3) dopamine receptor [2]): 0.0251 µM
Ki (D(3) dopamine receptor [3]): 0.01 µM
SMILES: Cc1nc(-c2ccc(-c3nnc(SCCCN4CCOC(c5ccc(C(F)(F)F)cc5)C4)n3C)cc2)no1 (racemic)

Ki (D(3) dopamine receptor [1]): > 10 µM
Ki (D(3) dopamine receptor [2]): 0.0631 µM
Ki (D(3) dopamine receptor [3]): 0.02 µM
SMILES: CC(=O)c1ccc(-c2nnc(SCCCN3CCOC(c4ccc(C(F)(F)F)cc4)C3)n2C)cc1 (racemic)

Ki (D(3) dopamine receptor [1]): > 10 µM
Ki (D(3) dopamine receptor [2]): 0.0158 µM
Ki (D(3) dopamine receptor [3]): 0.0126 µM
SMILES: Cn1c(SCCCN2CCOC(c3ccc(C(F)(F)F)cc3)C2)nnc1-c1ccc(-c2nnco2)cc1 (racemic)

Ki (D(3) dopamine receptor [1]): > 10 µM
Ki (D(3) dopamine receptor [2]): 0.501 µM
SMILES: Cc1ccc(C2CN(CCCSc3nnc(-c4ocnc4C)n3C)CCO2)cc1 (racemic)

Ki (D(3) dopamine receptor [1]): > 10 µM
Ki (D(3) dopamine receptor [2]): 0.1 µM
SMILES: Cn1c(SCCCN2CCOC(c3ccc(C(F)(F)F)cc3)C2)nnc1-c1cncc(C(N)=O)c1 (racemic)

Ratio Ki [6]: 300
SMILES: Cn1c(SCCCN2CCOC(c3ccc(C(F)(F)F)cc3)C2)nnc1-c1ccc(-c2ncco2)cc1 (racemic)

pKi (D(3) dopamine receptor [2]): 7.1
Ki (D(3) dopamine receptor [3]): 0.0158 µM
SMILES: Cc1ncoc1-c1nnc(SCCCCN2CCOC(c3ccc(C(F)(F)F)cc3)C2)n1C (stereo in doubt; 11)
Ki [4]: 2.51 µM

Ki (D(3) dopamine receptor [2]): 0.398 µM
SMILES: Cn1c(SCCCN2CCOC(c3ccc(C(F)(F)F)cc3)C2)nnc1-c1ccc(-c2ncco2)cc1 (stereo in doubt; 33)
